Experimental data: patent US20030087906A1, “NITROGEN SUBSTITUTED BIARYL PURINE DERIVATIVES AS POTENT ANTIPROLIFERATIVE AGENTS” (priority 2001, published 2003)

Legend:
UO-31 = experiment: NCI 60-cell line growth inhibition assay; format: cell-based; details: Homo sapiens; UO-31 (Renal)
SW-620 = experiment: NCI 60-cell line growth inhibition assay; format: cell-based; details: Homo sapiens; SW-620 (Colon)
T-47D = experiment: NCI 60-cell line growth inhibition assay; format: cell-based; details: Homo sapiens, T47D; T-47D (Breast)
HS 578T = experiment: NCI 60-cell line growth inhibition assay; format: cell-based; details: Homo sapiens; HS 578T (Breast)
MDA-N = experiment: NCI 60-cell line growth inhibition assay; format: cell-based; details: Homo sapiens; MDA-N (Breast)
SNB-75 = experiment: NCI 60-cell line growth inhibition assay; format: cell-based; details: Homo sapiens; SNB-75 (CNS)
SNB-19 = experiment: NCI 60-cell line growth inhibition assay; format: cell-based; details: Homo sapiens; SNB-19 (CNS)
MOLT-4 = experiment: NCI 60-cell line growth inhibition assay; format: cell-based; details: Homo sapiens; MOLT-4 (Leukemia)
LOX IMVI = experiment: NCI 60-cell line growth inhibition assay; format: cell-based; details: Homo sapiens; LOX IMVI (Melanoma)
COLO 205 = experiment: NCI 60-cell line growth inhibition assay; format: cell-based; details: Homo sapiens; COLO 205 (Colon)
HOP-92 = experiment: NCI 60-cell line growth inhibition assay; format: cell-based; details: Homo sapiens; HOP-92 (Non-Small Cell Lung)
SK-MEL-28 = experiment: NCI 60-cell line growth inhibition assay; format: cell-based; details: Homo sapiens; SK-MEL-28 (Melanoma)
OVCAR-4 = experiment: NCI 60-cell line growth inhibition assay; format: cell-based; details: Homo sapiens; OVCAR-4 (Ovarian)
NCI-H322M = experiment: NCI 60-cell line growth inhibition assay; format: cell-based; details: Homo sapiens; NCI-H322M (Non-Small Cell Lung)
NCI-H460 = experiment: NCI 60-cell line growth inhibition assay; format: cell-based; details: Homo sapiens; NCI-H460 (Non-Small Cell Lung)
HOP-62 = experiment: NCI 60-cell line growth inhibition assay; format: cell-based; details: Homo sapiens; HOP-62 (Non-Small Cell Lung)
NCI/ADR-RES = experiment: NCI 60-cell line growth inhibition assay; format: cell-based; details: Homo sapiens; NCI/ADR-RES (Breast)
OVCAR-3 = experiment: NCI 60-cell line growth inhibition assay; format: cell-based; details: Homo sapiens; OVCAR-3 (Ovarian)
RPMI-8226 = experiment: NCI 60-cell line growth inhibition assay; format: cell-based; details: Homo sapiens; RPMI-8226 (Leukemia)
SF-539 = experiment: NCI 60-cell line growth inhibition assay; format: cell-based; details: Homo sapiens; SF-539 (CNS)
UACC-62 = experiment: NCI 60-cell line growth inhibition assay; format: cell-based; details: Homo sapiens; UACC-62 (Melanoma)
SK-MEL-2 = experiment: NCI 60-cell line growth inhibition assay; format: cell-based; details: Homo sapiens; SK-MEL-2 (Melanoma)
HT29 = experiment: NCI 60-cell line growth inhibition assay; format: cell-based; details: Homo sapiens, HT-29; HT29 (Colon)
CCRF-CEM = experiment: NCI 60-cell line growth inhibition assay; format: cell-based; details: Homo sapiens; CCRF-CEM (Leukemia)
NCI-H522 = experiment: NCI 60-cell line growth inhibition assay; format: cell-based; details: Homo sapiens; NCI-H522 (Non-Small Cell Lung)
TK-10 = experiment: NCI 60-cell line growth inhibition assay; format: cell-based; details: Homo sapiens; TK-10 (Renal)
PC-3 = experiment: NCI 60-cell line growth inhibition assay; format: cell-based; details: Homo sapiens; PC-3 (Prostate)
DU-145 = experiment: NCI 60-cell line growth inhibition assay; format: cell-based; details: Homo sapiens; DU-145 (Prostate)
RXF 393 = experiment: NCI 60-cell line growth inhibition assay; format: cell-based; details: Homo sapiens; RXF 393 (Renal)
MDA-MB-231/ATCC = experiment: NCI 60-cell line growth inhibition assay; format: cell-based; details: Homo sapiens; MDA-MB-231/ATCC (Breast)
MCF7 = experiment: NCI 60-cell line growth inhibition assay; format: cell-based; details: Homo sapiens; MCF7 (Breast)
SF-295 = experiment: NCI 60-cell line growth inhibition assay; format: cell-based; details: Homo sapiens; SF-295 (CNS)
A498 = experiment: NCI 60-cell line growth inhibition assay; format: cell-based; details: Homo sapiens; A498 (Renal)
786-0 = experiment: NCI 60-cell line growth inhibition assay; format: cell-based; details: Homo sapiens; 786-0 (Renal)
NCI-H23 = experiment: NCI 60-cell line growth inhibition assay; format: cell-based; details: Homo sapiens; NCI-H23 (Non-Small Cell Lung)
HCC-2998 = experiment: NCI 60-cell line growth inhibition assay; format: cell-based; details: Homo sapiens; HCC-2998 (Colon)
HL-60(TB) = experiment: NCI 60-cell line growth inhibition assay; format: cell-based; details: Homo sapiens; HL-60(TB) (Leukemia)
[1] = test system: Tumor Cells in Hollow Fibers; experiment: NCI Hollow Fiber Assay (in vivo evaluation)
EKVX = experiment: NCI 60-cell line growth inhibition assay; format: cell-based; details: Homo sapiens; EKVX (Non-Small Cell Lung)

With `CC[C@H](CO)Nc1nc(NCc2ccc(-c3cccc([N+](=O)[O-])c3)cc2)c2ncn(C(C)C)c2n1` [Compound 48] the GI50 (UO-31) was under 10 nM, the GI50 (SW-620) was under 10 nM and the GI50 (T-47D) was 150 nM. It also gave a GI50 (HS 578T) of 30 nM, a GI50 (MDA-N) of 20 nM and a GI50 (SNB-75) of under 10 nM. It also gave a GI50 (SNB-19) of 20 nM, a GI50 (MOLT-4) of 50 nM and a GI50 (LOX IMVI) of 190 nM. It also gave a GI50 (COLO 205) of 30 nM, a GI50 (HOP-92) of 460 nM and a GI50 (SK-MEL-28) of under 10 nM. For the same compound, the GI50 (OVCAR-4) was 200 nM, the GI50 (NCI-H322M) was 30 nM and the GI50 (NCI-H460) was 250 nM. For the same compound, the GI50 (HOP-62) was 30 nM, the GI50 (NCI/ADR-RES) was 120 nM and the GI50 (OVCAR-3) was 170 nM. It also gave a GI50 (RPMI-8226) of under 10 nM, a GI50 (SF-539) of 380 nM and a GI50 (UACC-62) of 100 nM. The GI50 (SK-MEL-2) was 480 nM, the GI50 (HT29) was under 10 nM and the GI50 (CCRF-CEM) was 30 nM. For the same compound, the GI50 (NCI-H522) was under 10 nM, the GI50 (TK-10) was 370 nM and the GI50 (PC-3) was 230 nM. For the same compound, the GI50 (DU-145) was 550 nM, the GI50 (RXF 393) was under 10 nM and the GI50 (MDA-MB-231/ATCC) was 90 nM. For the same compound, the GI50 (MCF7) was 250 nM, the GI50 (SF-295) was 240 nM and the GI50 (A498) was 390 nM. For the same compound, the GI50 (786-0) was 250 nM and the GI50 (NCI-H23) was 70 nM.

Work on `CC(=O)N[C@H]1CC[C@H](Nc2nc(NCc3ccc(-c4ccccc4)nc3)c3ncn(C(C)C)c3n2)CC1` [Compound 87] yielded a GI50 (UO-31) of 16 nM, a GI50 (SW-620) of under 10 nM and a GI50 (T-47D) of 48 nM. It also gave a GI50 (HS 578T) of under 10 nM, a GI50 (SNB-75) of 12 nM and a GI50 (SNB-19) of 38 nM. It also gave a GI50 (MOLT-4) of 20 nM, a GI50 (LOX IMVI) of 27 nM and a GI50 (COLO 205) of under 10 nM. For the same compound, the GI50 (HCC-2998) was under 10 nM, the GI50 (HOP-92) was 88 nM and the GI50 (HL-60(TB)) was under 10 nM. It also gave a GI50 (SK-MEL-28) of under 10 nM, a GI50 (OVCAR-4) of 48 nM and a GI50 (NCI-H460) of 220 nM. It also gave a GI50 (HOP-62) of 10 nM, a GI50 (NCI/ADR-RES) of 280 nM and a GI50 (OVCAR-3) of 50 nM. The GI50 (RPMI-8226) was under 10 nM, the GI50 (SF-539) was 81 nM and the GI50 (UACC-62) was 45 nM. The “IP Score” value ([1]; IP fibers) was 30, the SC score ([1]; SC fibers) was 2 and the GI50 (SK-MEL-2) was 56 nM. It also gave a GI50 (HT29) of under 10 nM, a GI50 (CCRF-CEM) of under 10 nM and a GI50 (NCI-H522) of under 10 nM. It also gave a GI50 (TK-10) of 29 nM, a GI50 (PC-3) of 18 nM and a GI50 (DU-145) of 220 nM. For the same compound, the GI50 (RXF 393) was 11 nM, the GI50 (MDA-MB-231/ATCC) was under 10 nM and the GI50 (MCF7) was 40 nM. For the same compound, the GI50 (SF-295) was 47 nM, the GI50 (A498) was 100 nM and the GI50 (786-0) was 47 nM. For the same compound, the GI50 (NCI-H23) was 22 nM.

`CC[C@H](CO)Nc1nc(NCc2ccc(-c3ccc(OC)cc3)cc2)c2ncn(C(C)C)c2n1` [Compound 43] was tested, and the GI50 (UO-31) was 2800 nM, the GI50 (SW-620) was 1600 nM and the GI50 (T-47D) was 2200 nM. The GI50 (SNB-19) was 5000 nM, the GI50 (MOLT-4) was 2000 nM and the GI50 (LOX IMVI) was 3400 nM. The GI50 (COLO 205) was 1600 nM, the GI50 (HCC-2998) was 3400 nM and the GI50 (HOP-92) was 2600 nM. It also gave a GI50 (HL-60(TB)) of 2100 nM, a GI50 (SK-MEL-28) of 2300 nM and a GI50 (OVCAR-4) of 8900 nM. The GI50 (NCI-H322M) was 3500 nM, the GI50 (NCI-H460) was 3200 nM and the GI50 (HOP-62) was 3300 nM. For the same compound, the GI50 (NCI/ADR-RES) was 5200 nM, the GI50 (OVCAR-3) was 9300 nM and the GI50 (SF-539) was 3400 nM. The GI50 (UACC-62) was 3300 nM, the GI50 (SK-MEL-2) was 61700 nM and the GI50 (HT29) was 3600 nM. The GI50 (CCRF-CEM) was 2800 nM, the GI50 (TK-10) was 3200 nM and the GI50 (PC-3) was 38900 nM. The GI50 (DU-145) was 2600 nM, the GI50 (RXF 393) was 1900 nM and the GI50 (MDA-MB-231/ATCC) was 3200 nM. It also gave a GI50 (EKVX) of 2800 nM, a GI50 (MCF7) of 2700 nM and a GI50 (SF-295) of 4000 nM. For the same compound, the GI50 (A498) was 3000 nM, the GI50 (786-0) was 3100 nM and the GI50 (NCI-H23) was 4300 nM.
